Assay results published in the NIST ThermoML archive (doi:10.1021/acs.jced.5b00940).
Numbers after ± are expanded uncertainties.

Assay: mn = molality of the nth substance listed, in mol/kg
Settings: 100 kPa, Liquid; for viscosity: Capillary tube (Ostwald / Ubbelohde) method; for mass density: Vibrating tube method

CC[N+](CC)(CC)CC.[Br-] [tetraethylammonium bromide] + O
Settings	mass density, 288.15 K [kg/m3]	mass density, 298.15 K [kg/m3]	mass density, 308.15 K [kg/m3]	mass density, 318.15 K [kg/m3]	viscosity, 288.15 K [mPa·s]	viscosity, 298.15 K [mPa·s]	viscosity, 308.15 K [mPa·s]	viscosity, 318.15 K [mPa·s]
m1 = 0.05	1001.83 ± 2	998.859 ± 2	993.878 ± 2	991.993 ± 2	1.16 ± 0.047	0.904 ± 0.037	0.731 ± 0.03	0.612 ± 0.025
m1 = 0.5	1017.91 ± 2	1015.99 ± 2	1010.17 ± 2	1007.21 ± 2	1.341 ± 0.054	1.043 ± 0.042	0.836 ± 0.034	0.7 ± 0.028
m1 = 1	1035.82 ± 2	1032.57 ± 2	1027.25 ± 2	1023.5 ± 2	1.55 ± 0.063	1.209 ± 0.049	0.959 ± 0.039	0.792 ± 0.032
m1 = 2	1060.98 ± 2.1	1057.94 ± 2.1	1051.91 ± 2.1	1046.83 ± 2.1	1.942 ± 0.08	1.513 ± 0.062	1.189 ± 0.049	0.952 ± 0.039
